Reference: US9676773B2, “Azaindole derivative” (TAIHO PHARMACEUTICAL CO., LTD., priority 2014, dated 2017)

What was measured:
Assay type in all cases: biochemical
[1] = target: T1, purified recombinant human JAK3 protein (Homo sapiens, UniProt P52333); assay: Measurement of JAK3 kinase-inhibitory activity; details: substrate peptide 1 μM, ATP 5 μM, 25° C., 80 minutes
T1 construct: purchased Carna Biosciences, Inc
T1 sequence (P52333 1-1124): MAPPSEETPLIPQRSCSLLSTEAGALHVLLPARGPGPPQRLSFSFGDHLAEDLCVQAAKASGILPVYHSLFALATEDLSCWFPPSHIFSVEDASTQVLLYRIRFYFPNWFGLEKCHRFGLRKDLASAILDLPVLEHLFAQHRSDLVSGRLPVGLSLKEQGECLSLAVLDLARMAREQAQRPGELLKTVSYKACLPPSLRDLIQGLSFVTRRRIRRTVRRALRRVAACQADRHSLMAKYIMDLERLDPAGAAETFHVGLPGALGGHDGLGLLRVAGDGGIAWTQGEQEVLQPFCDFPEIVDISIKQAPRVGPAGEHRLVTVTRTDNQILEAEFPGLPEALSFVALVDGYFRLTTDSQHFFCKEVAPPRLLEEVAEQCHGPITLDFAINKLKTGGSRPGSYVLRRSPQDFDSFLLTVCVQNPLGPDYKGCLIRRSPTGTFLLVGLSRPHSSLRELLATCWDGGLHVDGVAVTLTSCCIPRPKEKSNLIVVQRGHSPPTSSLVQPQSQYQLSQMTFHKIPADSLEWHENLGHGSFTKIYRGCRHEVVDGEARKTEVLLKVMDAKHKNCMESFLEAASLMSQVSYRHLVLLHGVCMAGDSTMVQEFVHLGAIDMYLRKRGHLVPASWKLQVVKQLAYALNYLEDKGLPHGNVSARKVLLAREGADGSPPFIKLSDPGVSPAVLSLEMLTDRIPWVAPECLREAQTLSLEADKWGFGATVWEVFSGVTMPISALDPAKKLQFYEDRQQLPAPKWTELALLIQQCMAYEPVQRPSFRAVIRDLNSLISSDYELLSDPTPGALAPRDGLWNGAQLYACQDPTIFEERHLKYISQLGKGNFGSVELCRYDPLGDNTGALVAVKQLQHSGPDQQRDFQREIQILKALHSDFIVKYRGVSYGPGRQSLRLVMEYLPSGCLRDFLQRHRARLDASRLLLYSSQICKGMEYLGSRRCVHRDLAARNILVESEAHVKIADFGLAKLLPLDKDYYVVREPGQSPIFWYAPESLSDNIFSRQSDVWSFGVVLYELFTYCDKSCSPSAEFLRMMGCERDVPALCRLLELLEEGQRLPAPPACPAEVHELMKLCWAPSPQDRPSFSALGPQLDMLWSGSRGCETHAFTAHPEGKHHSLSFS
Experimental: 3) Measurement of JAK3 Kinase-Inhibitory Activity
The activity of the compound of the present invention to inhibit the activity of JAK3 kinase was measured.
(§1) Among materials for the measurement of this inhibitory activity, a substrate peptide and a kinase protein were acquired as follows. As such a substrate peptide, a substrate peptide for QSS Assist™ JAK3-MSA assay kit (Carna Biosciences, Inc.) was purchased. As such a kinase protein, a purified recombinant human JAK3 protein (Carna Biosciences, Inc.) was purchased.
The method for measuring the inhibitory activity is as follows. First, a serial dilution of the compound of the present invention was prepared by the same method as that described in the above section regarding JAK1. This serial dilution solution (the final concentration of DMSO upon a kinase reaction: 5.0%) or DMSO (final concentration: 5.0%) was mixed with a solution containing the substrate peptide (final concentration: 1 μM), magnesium chloride (final concentration: 5 mM) and ATP (final concentration: 5 μM) in a buffer for kinase reaction (20 mM HEPES (pH 7.5), 2 mM dithiothreitol and 0.01% Triton X-100). Thereafter, a JAK3 protein was further added to the mixed solution, and the obtained mixture was then incubated at 25° C. for 80 minutes to carry out a kinase reaction. To the reaction solution, EDTA was added to a final concentration of 30 mM, so as to terminate the reaction. After termination of the reaction, the measurement and the data analysis were carried out by the same methods as those described in the above section regarding JAK1.

[2] = target: T2, purified recombinant human JAK1 protein (Homo sapiens, UniProt P23458); assay: Measurement of JAK1 kinase-inhibitory activity; details: substrate peptide 1 μM, ATP 75 M (so in the source), 25° C., 120 minutes
T2 construct: purchased Carna Biosciences, Inc
T2 sequence (P23458 whole entry): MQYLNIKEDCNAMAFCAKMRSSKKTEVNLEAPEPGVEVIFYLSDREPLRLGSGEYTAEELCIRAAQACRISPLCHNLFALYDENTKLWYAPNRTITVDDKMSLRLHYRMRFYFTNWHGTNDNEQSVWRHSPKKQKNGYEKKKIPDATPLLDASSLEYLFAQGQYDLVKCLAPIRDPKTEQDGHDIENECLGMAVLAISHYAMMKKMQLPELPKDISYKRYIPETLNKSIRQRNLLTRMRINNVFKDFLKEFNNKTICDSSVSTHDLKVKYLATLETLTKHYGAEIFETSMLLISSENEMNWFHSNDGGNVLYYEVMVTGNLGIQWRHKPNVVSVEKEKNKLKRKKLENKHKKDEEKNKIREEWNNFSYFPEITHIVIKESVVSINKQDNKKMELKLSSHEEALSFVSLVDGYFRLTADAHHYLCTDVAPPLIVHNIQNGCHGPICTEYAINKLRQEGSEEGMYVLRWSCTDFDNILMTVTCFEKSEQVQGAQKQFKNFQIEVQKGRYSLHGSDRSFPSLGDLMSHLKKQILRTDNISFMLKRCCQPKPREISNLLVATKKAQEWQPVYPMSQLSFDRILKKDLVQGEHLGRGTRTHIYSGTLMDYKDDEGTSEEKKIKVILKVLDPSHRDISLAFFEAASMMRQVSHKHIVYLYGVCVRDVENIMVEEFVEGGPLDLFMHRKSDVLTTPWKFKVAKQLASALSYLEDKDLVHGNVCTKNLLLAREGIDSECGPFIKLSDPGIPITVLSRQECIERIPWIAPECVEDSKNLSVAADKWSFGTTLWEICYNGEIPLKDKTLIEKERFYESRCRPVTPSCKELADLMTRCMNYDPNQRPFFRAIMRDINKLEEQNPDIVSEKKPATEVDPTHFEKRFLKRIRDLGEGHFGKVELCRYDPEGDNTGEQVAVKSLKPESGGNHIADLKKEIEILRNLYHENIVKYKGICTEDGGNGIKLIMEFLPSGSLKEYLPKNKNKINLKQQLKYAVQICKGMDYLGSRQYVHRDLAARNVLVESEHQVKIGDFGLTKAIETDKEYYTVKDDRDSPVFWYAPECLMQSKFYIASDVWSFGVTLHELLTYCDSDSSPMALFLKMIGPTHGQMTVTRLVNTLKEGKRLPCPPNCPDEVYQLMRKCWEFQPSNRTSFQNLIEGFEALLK
Experimental: 1) Measurement of JAK1 Kinase-Inhibitory Activity
The activity of the compound of the present invention to inhibit the activity of JAK1 kinase was measured.
as §1, with “JAK1-MSA” for “JAK3-MSA”, “JAK1” for “JAK3”
The method for measuring the inhibitory activity is as follows. First, the compounds of the present invention were each dissolved in dimethyl sulfoxide (DMSO), and a serial dilution was then prepared by the use of DMSO. Subsequently, a serial dilution solution of the compound (the final concentration of DMSO upon a kinase reaction: 5.0%) or DMSO (final concentration: 5.0%) was mixed with a solution containing the substrate peptide (final concentration: 1 μM), magnesium chloride (final concentration: 5 mM) and ATP (final concentration: 75 µM) in a buffer for kinase reaction (20 mM HEPES (pH 7.5), 2 mM dithiothreitol and 0.01% Triton X-100). Thereafter, a JAK1 protein was further added to the mixed solution, and the obtained mixture was then incubated at 25° C. for 120 minutes to carry out a kinase reaction. To the reaction solution, EDTA was added to a final concentration of 30 mM, so as to terminate the reaction. Finally, with LabChip EZ Reader II (Perkin Elmer Corp.), an unphosphorylated substrate peptide (S) and a phosphorylated peptide (P) were subjected to microchannel capillary electrophoresis, so that the two peptides were separated from each other and were then detected. The amount of a phosphorylation reaction was obtained based on the heights of the peaks of S and P, and the concentration of the compound capable of inhibiting 50% of the phosphorylation reaction was defined as an IC50 value (nM).

[3] = target: T3, purified recombinant human JAK2 protein (Homo sapiens, UniProt O60674); assay: Measurement of JAK2 kinase-inhibitory activity; details: FL-Peptide 22 1 μM, ATP 10 μM, 25° C., 80 minutes
T3 construct: purchased Carna Biosciences, Inc
T3 sequence (O60674 whole entry): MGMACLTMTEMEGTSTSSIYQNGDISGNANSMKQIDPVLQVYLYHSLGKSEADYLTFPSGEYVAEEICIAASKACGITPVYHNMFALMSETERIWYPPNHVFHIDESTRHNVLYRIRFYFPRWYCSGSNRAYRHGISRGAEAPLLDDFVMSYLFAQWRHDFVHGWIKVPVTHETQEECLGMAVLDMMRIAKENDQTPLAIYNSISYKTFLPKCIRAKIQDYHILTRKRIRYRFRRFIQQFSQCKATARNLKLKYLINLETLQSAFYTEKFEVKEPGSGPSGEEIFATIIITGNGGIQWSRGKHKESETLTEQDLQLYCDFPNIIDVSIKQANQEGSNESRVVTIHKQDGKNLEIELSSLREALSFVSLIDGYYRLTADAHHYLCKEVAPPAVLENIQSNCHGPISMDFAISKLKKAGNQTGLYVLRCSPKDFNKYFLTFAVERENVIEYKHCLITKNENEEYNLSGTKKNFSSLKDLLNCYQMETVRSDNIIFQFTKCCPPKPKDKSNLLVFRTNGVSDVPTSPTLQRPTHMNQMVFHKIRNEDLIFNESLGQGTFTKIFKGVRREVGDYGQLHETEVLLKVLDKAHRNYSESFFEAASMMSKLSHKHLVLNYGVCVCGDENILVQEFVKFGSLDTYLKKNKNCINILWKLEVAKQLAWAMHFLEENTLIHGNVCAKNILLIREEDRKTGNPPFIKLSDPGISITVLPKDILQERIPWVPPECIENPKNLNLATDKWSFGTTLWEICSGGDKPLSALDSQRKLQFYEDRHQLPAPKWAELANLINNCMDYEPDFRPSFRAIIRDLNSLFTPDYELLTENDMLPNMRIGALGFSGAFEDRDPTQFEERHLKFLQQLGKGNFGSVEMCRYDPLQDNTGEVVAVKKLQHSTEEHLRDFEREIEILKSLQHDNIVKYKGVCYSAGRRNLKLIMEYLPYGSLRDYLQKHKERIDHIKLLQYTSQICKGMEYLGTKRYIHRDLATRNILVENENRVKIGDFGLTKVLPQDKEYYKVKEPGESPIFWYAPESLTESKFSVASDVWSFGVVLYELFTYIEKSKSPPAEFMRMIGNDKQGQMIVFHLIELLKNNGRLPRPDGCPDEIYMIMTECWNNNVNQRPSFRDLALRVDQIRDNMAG
Experimental: 2) Measurement of JAK2 Kinase-Inhibitory Activity
The activity of the compound of the present invention to inhibit the activity of JAK2 kinase was measured.
as §1, with “FL-Peptide 22 (Perkin Elmer Corp.)” for “a substrate peptide for QSS Assist™ JAK3-MSA assay kit (Carna Biosciences, Inc.)”, “JAK2” for “JAK3”
The method for measuring the inhibitory activity is as follows. First, a serial dilution of the compound of the present invention was prepared by the same method as that described in the above section regarding JAK1. This serial dilution solution (the final concentration of DMSO upon a kinase reaction: 5.0%) or DMSO (final concentration: 5.0%) was mixed with a solution containing the substrate peptide (final concentration: 1 μM), magnesium chloride (final concentration: 10 mM) and ATP (final concentration: 10 μM) in a buffer for kinase reaction (15 mM Tris (pH 7.5), 2 mM dithiothreitol and 0.01% Tween 20). Thereafter, a JAK2 protein was further added to the mixed solution, and the obtained mixture was then incubated at 25° C. for 80 minutes to carry out a kinase reaction. To the reaction solution, EDTA was added to a final concentration of 30 mM, so as to terminate the reaction. After termination of the reaction, the measurement and the data analysis were carried out by the same methods as those described in the above section regarding JAK1.

| IC50 [1] | IC50 [2] | IC50 [3] | Compound |
| --- | --- | --- | --- |
| 0.83 nM | > 10000 nM | 4800 nM | C=CC(=O)NC1CCC=C(c2ccnc3[nH]cc(-c4ccc(N)nc4)c23)C1 (stereo not drawn) [Compound 39, N-(3-(3-(6-Aminopyridin-3-yl)-1H-pyrrolo[2,3-b]pyridin-4-yl)cyclohex-3-en-1-yl)acrylamide] |
| 0.38 nM | > 10000 nM | 3100 nM | C=CC(=O)NC1CCC=C(c2ccnc3[nH]cc(-c4ccncc4)c23)C1 (stereo not drawn) [Compound 2, N-(3-(3-(Pyridin-4-yl)-1H-pyrrolo[2,3-b]pyridin-4-yl)cyclohex-3-en-1-yl)acrylamide] |
| 0.49 nM | 9500 nM | 1900 nM | C=CC(=O)NC1CCC=C(c2ccnc3[nH]cc(-c4cncc(CO)c4)c23)C1 (stereo not drawn) [Compound 11, N-(3-(3-(5-(Hydroxymethyl)pyridin-3-yl)-1H-pyrrolo[2,3-b]pyridin-4-yl)cyclohex-3-en-1-yl)acrylamide] |
| 0.6 nM | 3600 nM | 1400 nM | C=CC(=O)NC1CCC=C(c2ccnc3[nH]cc(C4=CCCC4)c23)C1 (stereo not drawn) [Compound 33, N-(3-(3-(Cyclocyclopent-1-en-1-yl)-1H-pyrrolo[2,3-b]pyridin-4-yl)cyclohex-3-en-1-yl)acrylamide] |
| 0.34 nM | 5200 nM | 2000 nM | C=CC(=O)NC1CCC=C(c2ccnc3[nH]cc(-c4cncs4)c23)C1 (stereo not drawn) [Compound 13, N-(3-(3-(Thiazol-5-yl)-1H-pyrrolo[2,3-b]pyridin-4-yl)cyclohex-3-en-1-yl)acrylamide] |
| 0.67 nM | 5800 nM | 2500 nM | C=CC(=O)NC1CCC=C(c2ccnc3[nH]cc(-c4cccnc4F)c23)C1 (stereo not drawn) [Compound 38, N-(3-(3-(2-Fluoropyridin-3-yl)-1H-pyrrolo[2,3-b]pyridin-4-yl)cyclohex-3-en-1-yl)acrylamide] |

Second part, the compound before the results:

| Compound | IC50 [1] | IC50 [2] | IC50 [3] |
| --- | --- | --- | --- |
| C=CC(=O)NC1CCC=C(c2c(C#N)cnc3[nH]cc(-c4ccco4)c23)C1 (stereo not drawn) [Compound 45, N-(3-(5-Cyano-3-(furan-2-yl)-1H-pyrrolo[2,3-b]pyridin-4-yl)cyclohex-3-en-1-yl)acrylamide] | 0.34 nM | 1600 nM | 440 nM |
| C=CC(=O)NC1CCC=C(c2ccnc3[nH]cc(C4=CCOCC4)c23)C1 (stereo not drawn) [Compound 31, N-(3-(3-(3,6-Dihydro-2H-pyran-4-yl)-1H-pyrrolo[2,3-b]pyridin-4-yl)cyclohex-3-en-1-yl)acrylamide] | 0.71 nM | 7700 nM | 3000 nM |
| C=CC(=O)NC1CCC=C(c2ccnc3[nH]cc(-c4nnc(CC)o4)c23)C1 (stereo not drawn) [Compound 51, N-(3-(3-(5-Ethyl-1,3,4-oxadiazol-2-yl)-1H-pyrrolo[2,3-b]pyridin-4-yl)cyclohex-3-en-1-yl)acrylamide] | 0.61 nM | 3000 nM | 380 nM |
| C=CC(=O)NC1CCC=C(c2ccnc3[nH]cc(-c4nnc(C)o4)c23)C1 (stereo not drawn) [Compound 50, N-(3-(3-(5-Methyl-1,3,4-oxadiazol-2-yl)-1H-pyrrolo[2,3-b]pyridin-4-yl)cyclohex-3-en-1-yl)acrylamide] | 0.62 nM | 3800 nM | 920 nM |
| C=CC(=O)NC1CCC=C(c2c(-c3cnn(C)c3)cnc3[nH]cc(-c4cccnc4)c23)C1 (stereo not drawn) [Compound 19, N-(3-(5-(1-Methyl-1H-pyrazolo-4-yl)-3-(pyridin-3-yl)-1H-pyrrolo[2,3-b]pyridin-4-yl)cyclohex-3-en-1-yl)acrylamide] | 0.51 nM | 1000 nM | 280 nM |
| C=CC(=O)NC1CCC=C(c2c(OC)cnc3[nH]cc(-c4ccco4)c23)C1 (stereo not drawn) [Compound 17, N-(3-(3-(Furan-2-yl)-5-methoxy-1H-pyrrolo[2,3-b]pyridin-4-yl)cyclohex-3-en-1-yl)acrylamide] | < 0.3 nM | 860 nM | 170 nM |
| C=CC(=O)NC1CCC=C(c2ccnc3[nH]cc(-c4n[nH]c(=O)o4)c23)C1 (stereo not drawn) [Compound 52, N-(3-(3-(5-Oxo-4,5-dihydro-1,3,4-oxadiazol-2-yl)-1H-pyrrolo[2,3-b]pyridin-4-yl)cyclohex-3-en-1-yl)acrylamide] | < 0.3 nM | 890 nM | 480 nM |
| C=CC(=O)NC1CCC=C(c2ccnc3[nH]cc(C4=CC(=O)CCC4)c23)C1 (stereo not drawn) [Compound 32, N-(3-(3-(3-Oxocyclohex-1-en-1-yl)-1H-pyrrolo[2,3-b]pyridin-4-yl)cyclohex-3-en-1-yl)acrylamide] | 0.72 nM | > 10000 nM | 3000 nM |
| C=CC(=O)NC1CCC=C(c2ccnc3[nH]cc(C4=CCCCC4)c23)C1 (stereo not drawn) [Compound 30, N-(3-(3-(cyclohex-1-en-1-yl)-1H-pyrrolo[2,3-b]-pyridin-4-yl)cyclohex-3-en-1-yl)acrylamide] | 0.48 nM | 3200 nM | 1400 nM |
| C=CC(=O)NC1CCC=C(c2ccnc3[nH]cc(-c4ccc[n+]([O-])c4)c23)C1 (stereo not drawn) [Compound 43, 3-(4-(5-Acrylamidecyclohex-1-en-1-yl)-1H-pyrrolo[2,3-b]pyridin-3-yl)pyridine 1-oxide] | 0.93 nM | > 10000 nM | 9100 nM |
